Paper PMC4527243, “Role of electrostatic interactions for ligand recognition and specificity of peptide transporters” (BMC Biology, 2015)
Where a SMILES comes first, the peptide text is derived from it.

Legend:
YePEPT [1] = molecular target: T1, YePEPT (Yersinia enterocolitica, UniProt A0A2R9TD79); test: competition of [3H]Ala-Ala uptake in E. coli cells; assay type: cell-based, Escherichia coli
T1 construct: gene YEP4_02370; full-length gene in pZUDF21-rbs-3C-10His, C-terminal HRV3C site and deca-His tag, expressed in E. coli BL21(DE3) pLysS; uptake in whole cells
T1 sequence (A0A2R9TD79 1-511): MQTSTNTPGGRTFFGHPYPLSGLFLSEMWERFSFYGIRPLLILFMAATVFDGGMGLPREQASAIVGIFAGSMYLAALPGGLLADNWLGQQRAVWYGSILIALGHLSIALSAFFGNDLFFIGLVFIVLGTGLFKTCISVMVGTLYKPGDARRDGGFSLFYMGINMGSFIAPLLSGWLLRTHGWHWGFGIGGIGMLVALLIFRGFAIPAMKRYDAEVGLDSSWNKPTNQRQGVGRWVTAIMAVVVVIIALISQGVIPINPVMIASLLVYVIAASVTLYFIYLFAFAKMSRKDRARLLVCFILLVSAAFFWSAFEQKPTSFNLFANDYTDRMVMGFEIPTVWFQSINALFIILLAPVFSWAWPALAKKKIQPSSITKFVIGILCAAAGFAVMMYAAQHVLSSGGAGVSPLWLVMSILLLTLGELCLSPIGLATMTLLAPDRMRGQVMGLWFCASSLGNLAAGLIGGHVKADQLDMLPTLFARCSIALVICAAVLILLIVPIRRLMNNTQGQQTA

YePEPT [2] = molecular target: T1, YePEPT; test: competition of [3H]Ala-Ala uptake in E. coli cells; assay type: cell-based; conditions: 50 μM [3H]Ala-Ala, 2.5 mM competitor, pH 7.5, room temperature
[3] = substrate: C[C@H](N)C(=O)N[C@@H](C)C(=O)O; test: [3H]Ala-Ala uptake saturation in E. coli cells; assay type: cell-based, Yersinia enterocolitica; conditions: labelled compound, pH 7.5, 150 mM NaCl, room temperature, 100 s

C[C@H](NC(=O)[C@@H](N)CC(=O)O)C(=O)O [Asp-Ala] (H-Asp-Ala-OH)
Ki (YePEPT [1]): ~80 µM

C[C@H](NC(=O)[C@@H](N)CCC(=O)O)C(=O)O [Glu-Ala] (H-Glu-Ala-OH)
Ki (YePEPT [1]): ~50 µM

C[C@H](NC(=O)[C@@H](N)Cc1ccc(O)cc1)C(=O)O [Tyr-Ala]
competition of [3H]Ala-Ala uptake in E. coli cells (YePEPT [2]): YePEPT also displayed specificity for Ala-Tyr and Tyr-Ala at comparable levels

B1: YePEPT (Yersinia enterocolitica subsp. palearctica YE-P4) (protein)
chain: MQTSTNTPGGRTFFGHPYPLSGLFLSEMWERFSFYGIRPLLILFMAATVFDGGMGLPREQASAIVGIFAGSMYLAALPGGLLADNWLGQQRAVWYGSILIALGHLSIALSAFFGNDLFFIGLVFIVLGTGLFKTCISVMVGTLYKPGDARRDGGFSLFYMGINMGSFIAPLLSGWLLRTHGWHWGFGIGGIGMLVALLIFRGFAIPAMKRYDAEVGLDSSWNKPTNQRQGVGRWVTAIMAVVVVIIALISQGVIPINPVMIASLLVYVIAASVTLYFIYLFAFAKMSRKDRARLLVCFILLVSAAFFWSAFEQKPTSFNLFANDYTDRMVMGFEIPTVWFQSINALFIILLAPVFSWAWPALAKKKIQPSSITKFVIGILCAAAGFAVMMYAAQHVLSSGGAGVSPLWLVMSILLLTLGELCLSPIGLATMTLLAPDRMRGQVMGLWFCASSLGNLAAGLIGGHVKADQLDMLPTLFARCSIALVICAAVLILLIVPIRRLMNNTQGQQTA
notes: full-length gene in pZUDF21-rbs-3C-10His, C-terminal HRV3C site and deca-His tag, expressed in E. coli BL21(DE3) pLysS; uptake in whole cells
Km [3]: 200 µM
